Source: patent US9062071B2, “Substituted piperidines as HDM2 inhibitors” (Merck Sharp & Dohme Corp, priority 2011, dated 2015)
pIC50: −log10 of the molar value.

Molecular target: HDM2 protein (Homo sapiens, UniProt Q00987)
Test: fluorescence polarization screening assay (FP IC50)
Type: binding
Details: class symbols
Protocol: The compounds were evaluated to determine activity at the HDM2 protein by known methods such as the fluorescence polarization screening assay that measures the inhibitory concentration that achieves 50% of maximal activity (FP IC50) and the dissociation constant for inhibitor binding (FP Ki). [Zhang et al., J. Analytical Biochemistry 331: 138-146 (2004)].

HDM2 protein, sequence (Q00987 whole entry): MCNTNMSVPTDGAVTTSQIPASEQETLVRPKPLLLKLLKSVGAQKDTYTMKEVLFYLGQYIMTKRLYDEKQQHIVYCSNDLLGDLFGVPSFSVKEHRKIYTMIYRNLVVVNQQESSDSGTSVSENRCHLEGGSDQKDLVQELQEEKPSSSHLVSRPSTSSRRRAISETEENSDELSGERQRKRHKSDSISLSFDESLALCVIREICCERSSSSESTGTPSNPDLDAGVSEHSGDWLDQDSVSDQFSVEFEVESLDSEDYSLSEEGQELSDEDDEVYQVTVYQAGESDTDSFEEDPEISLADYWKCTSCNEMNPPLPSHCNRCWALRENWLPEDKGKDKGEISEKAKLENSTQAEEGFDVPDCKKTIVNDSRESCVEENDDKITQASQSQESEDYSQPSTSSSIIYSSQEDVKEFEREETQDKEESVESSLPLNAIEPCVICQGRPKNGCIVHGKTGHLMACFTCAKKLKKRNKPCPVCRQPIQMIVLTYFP

Row | pIC50 | SMILES
1 | 4.70 to 7.00 | CCC[C@H]1N(C(=O)c2ncccc2C(F)(F)F)CCC[C@@]1(Oc1csc(C(F)(F)F)c1)C(=O)N1CCc2cc(C(N)=O)ccc2C1 [Compound A89, 2-{[(2R,3S)-2-propyl-1-{[3-(trifluoromethyl)pyridin-2-yl]carbonyl}-3-{[5-(trifluoromethyl)thiophen-3-yl]oxy}piperidin-3-yl]carbonyl}-1,2,3,4-tetrahydroisoquinoline-6-carboxamide]
2 | 4.70 to 7.00 | CCC[C@H]1N(C(=O)c2ncccc2C(F)(F)F)CCC[C@@]1(Oc1csc(C(F)(F)F)c1)C(=O)N1CCc2cc(S(C)(=O)=O)ccc2C1 [Compound A90, 6-(methylsulfonyl)-2-{[(2R,3S)-2-propyl-1-{[3-(trifluoromethyl)pyridin-2-yl]carbonyl}-3-{[5-(trifluoromethyl)thiophen-3-yl]oxy}piperidin-3-yl]carbonyl}-1,2,3,4-tetrahydroisoquinoline]
3 | 7.00 to 9.00 | CCC[C@H]1N(C(=O)c2ncccc2C(F)(F)F)CCC[C@@]1(Oc1csc(C(F)(F)F)c1)C(=O)N1CCc2cc(Cl)ccc2[C@H]1CCC(=O)N1CCN(CCO)CC1 [Compound A91, 2-(4-{3-[(1R)-6-chloro-2-{[(2R,3S)-2-propyl-1-{[3-(trifluoromethyl)pyridin-2-yl]carbonyl}-3-{[5-(trifluoromethyl)thiophen-3-yl]oxy}piperidin-3-yl]carbonyl}-1,2,3,4-tetrahydroisoquinolin-1 - yl]propanoyl}piperazin-1-yl)ethanol]
4 | 4.70 to 7.00 | CCC[C@H]1N(C(=O)c2ncccc2C(F)(F)F)CCC[C@@]1(Oc1csc(C(F)(F)F)c1)C(=O)N1CCc2cc(Cl)ccc2C1C(=O)N1CCN(CCO)CC1 (stereo partly drawn) [Compound A92, 2-{4-[(6-chloro-2-{[(2R,3S)-2-propyl-1-{[3-(trifluoromethyl)pyridin-2-yl]carbonyl}-3-{[5-(trifluoromethyl)thiophen-3-yl]oxy}piperidin-3-yl]carbonyl}-1,2,3,4-tetrahydroisoquinolin-1-yl)carbonyl]piperazin-1-yl}ethanol]
5 | 7.00 to 9.00 | CCC[C@H]1N(C(=O)c2ncccc2C(F)(F)F)CCC[C@@]1(Oc1csc(C(F)(F)F)c1)C(=O)N1CCc2cc(F)ccc2C1C(=O)N1CCN(CCO)CC1 (stereo partly drawn) [Compound A93, 2-{4-[(6-fluoro-2-{[(2R,3S)-2-propyl-1-{[3-(trifluoromethyl)pyridin-2-yl]carbonyl}-3-{[5-(trifluoromethyl)thiophen-3-yl]oxy}piperidin-3-yl]carbonyl}-1,2,3,4-tetrahydroisoquinolin-1-yl)carbonyl]piperazin-1-yl}ethanol]
6 | 4.70 to 7.00 | CCC[C@H]1N(C(=O)c2ncccc2C(F)(F)F)CCC[C@@]1(Oc1csc(C(F)(F)F)c1)C(=O)N1CCc2cc(F)ccc2C1C(=O)N1CCN(CCO)CC1 (stereo partly drawn) [Compound A94, 2-{4-[(6-fluoro-2-{[(2R,3S)-2-propyl-1-{[3-(trifluoromethyl)pyridin-2-yl]carbonyl}-3-{[5-(trifluoromethyl)thiophen-3-yl]oxy}piperidin-3-yl]carbonyl}-1,2,3,4-tetrahydroisoquinolin-1-yl)carbonyl]piperazin-1-yl}ethanol]
7 | 7.00 to 9.00 | NC(=O)C1c2ccc(Cl)cc2CCN1C(=O)[C@]1(Oc2csc(C(F)(F)F)c2)CCCN(C(=O)c2ncccc2C(F)(F)F)[C@@H]1CC(=O)O (stereo partly drawn) [Compound A95, [(2R,3S)-3-[(1-carbamoyl-6-chloro-3,4-dihydroisoquinolin-2(1H)-yl)carbonyl]-1-{[3-(trifluoromethyl)pyridin-2-yl]carbonyl}-3-{[5-(trifluoromethyl)thiophen-3-yl]oxy}piperidin-2-yl]acetic acid]
8 | 7.00 to 9.00 | CCC[C@H]1N(C(=O)c2ncccc2C(F)(F)F)CCC[C@@]1(Oc1csc(C(F)(F)F)c1)C(=O)N1CCc2cc(Cl)ccc2C1C1CCC(C(=O)O)C1 (stereo partly drawn) [Compound A96, 3-(6-chloro-2-{[(2R,3S)-2-propyl-1-{[3-(trifluoromethyl)pyridin-2-yl]carbonyl}-3-{[5-(trifluoromethyl)thiophen-3-yl]oxy}piperidin-3-yl]carbonyl}-1,2,3,4-tetrahydroisoquinolin-1-yl)cyclopentanecarboxylic acid]
9 | 7.00 to 9.00 | NC(=O)C1c2ccc(Cl)cc2CCN1C(=O)[C@]1(Oc2csc(C(F)(F)F)c2)CCCN(C(=O)c2ncccc2C(F)(F)F)[C@@H]1CC(=O)O (stereo partly drawn) [Compound A97, [(2R,3S)-3-[(1-carbamoyl-6-chloro-3,4-dihydroisoquinolin-2(1H)-yl)carbonyl]-1-{[3-(trifluoromethyl)pyridin-2-yl]carbonyl}-3-{[5-(trifluoromethyl)thiophen-3-yl]oxy}piperidin-2-yl]acetic acid]
10 | 7.00 to 9.00 | CCC[C@H]1N(C(=O)c2ncccc2C(F)(F)F)CCC[C@@]1(Oc1csc(C(F)(F)F)c1)C(=O)N1CCc2cc(Cl)ccc2[C@H]1CCC(=O)N1CCC(C(=O)O)CC1 [Compound A98, 1-{3-[(1R)-6-chloro-2-{[(2R,3S)-2-propyl-1-{[3-(trifluoromethyl)pyridin-2-yl]carbonyl}-3-{[5-(trifluoromethyl)thiophen-3-yl]oxy}piperidin-3-yl]carbonyl}-1,2,3,4-tetrahydroisoquinolin-1-yl]propanoyl}piperidine-4-carboxylic acid]
11 | 7.00 to 9.00 | CCC[C@H]1N(C(=O)c2ncccc2C(F)(F)F)CCC[C@@]1(Oc1csc(C(F)(F)F)c1)C(=O)N1CCc2cc(Cl)ccc2[C@@H]1CCC(=O)N1CCC(C(=O)O)CC1 [Compound A99, 1-{3-[(1S)-6-chloro-2-{[(2R,3S)-2-propyl-1-{[3-(trifluoromethyl)pyridin-2-yl]carbonyl}-3-{[5-(trifluoromethyl)thiophen-3-yl]oxy}piperidin-3-yl]carbonyl}-1,2,3,4-tetrahydroisoquinolin-1-yl]propanoyl}piperidine-4-carboxylic acid]
12 | 7.00 to 9.00 | CCC[C@H]1N(C(=O)c2ncccc2C(F)(F)F)CCC[C@@]1(Oc1csc(C(F)(F)F)c1)C(=O)N1CCc2cc(Cl)ccc2C1C(=O)O (stereo partly drawn) [Compound A100, 6-chloro-2-{[(2R,3S)-2-propyl-1-{[3-(trifluoromethyl)pyridin-2-yl]carbonyl}-3-{[5-(trifluoromethyl)thiophen-3-yl]oxy}piperidin-3-yl]carbonyl}-1,2,3,4-tetrahydroisoquinoline-1-carboxylic acid]
13 | 7.00 to 9.00 | CCC[C@H]1N(C(=O)c2ncccc2C(F)(F)F)CCC[C@@]1(Oc1csc(C(F)(F)F)c1)C(=O)N1CCc2cc(F)ccc2C1C(=O)O (stereo partly drawn) [Compound A101, 6-fluoro-2-{[(2R,3S)-2-propyl-1-{[3-(trifluoromethyl)pyridin-2-yl]carbonyl}-3-{[5-(trifluoromethyl)thiophen-3-yl]oxy}piperidin-3-yl]carbonyl}-1,2,3,4-tetrahydroisoquinoline-1-carboxylic acid]
14 | 7.00 to 9.00 | CCC[C@H]1N(C(=O)c2ncccc2C(F)(F)F)CCC[C@@]1(Oc1csc(C(F)(F)F)c1)C(=O)N1CCc2cc(Cl)ccc2C1C(=O)O (stereo partly drawn) [Compound A102, 6-chloro-2-{[(2R,3S)-2-propyl-1-{[3-(trifluoromethyl)pyridin-2-yl]carbonyl}-3-{[5-(trifluoromethyl)thiophen-3-yl]oxy}piperidin-3-yl]carbonyl}-1,2,3,4-tetrahydroisoquinoline-1-carboxylic acid]
15 | 4.70 to 7.00 | CCC[C@H]1N(C(=O)c2ncccc2C(F)(F)F)CCC[C@@]1(Oc1csc(C(F)(F)F)c1)C(=O)N1CCc2cc(Cl)ccc2C1CO (stereo partly drawn) [Compound A103, (6-chloro-2-{[(2R,3S)-2-propyl-1-{[3-(trifluoromethyl)pyridin-2-yl]carbonyl}-3-{[5-(trifluoromethyl)thiophen-3-yl]oxy}piperidin-3-yl]carbonyl}-1,2,3,4-tetrahydroisoquinolin-1-yl)methanol]
16 | 7.00 to 9.00 | CCC[C@H]1N(C(=O)c2ncccc2C(F)(F)F)CCC[C@@]1(Oc1csc(C(F)(F)F)c1)C(=O)N1CCc2cc(F)ccc2C1C(=O)O (stereo partly drawn) [Compound A104, 6-fluoro-2-{[(2R,3S)-2-propyl-1-{[3-(trifluoromethyl)pyridin-2-yl]carbonyl}-3-{[5-(trifluoromethyl)thiophen-3-yl]oxy}piperidin-3-yl]carbonyl}-1,2,3,4-tetrahydroisoquinoline-1-carboxylic acid]
17 | 4.70 to 7.00 | CCC[C@H]1N(C(=O)c2ncccc2C(F)(F)F)CCC[C@@]1(Oc1csc(C(F)(F)F)c1)C(=O)N1CCc2cc(Cl)ccc2C1CO (stereo partly drawn) [Compound A105, (6-chloro-2-{[(2R,3S)-2-propyl-1-{[3-(trifluoromethyl)pyridin-2-yl]carbonyl}-3-{[5-(trifluoromethyl)thiophen-3-yl]oxy}piperidin-3-yl]carbonyl}-1,2,3,4-tetrahydroisoquinolin-1-yl)methanol]
18 | 7.00 to 9.00 | CCC[C@H]1N(C(=O)c2ncccc2C(F)(F)F)CCC[C@@]1(Oc1csc(C(F)(F)F)c1)C(=O)N1CCc2cc(Cl)ccc2C1COC (stereo partly drawn) [Compound A106, 6-chloro-1-(methoxymethyl)-2-{[(2R,3S)-2-propyl-1-{[3-(trifluoromethyl)pyridin-2-yl]carbonyl}-3-{[5-(trifluoromethyl)thiophen-3-yl]oxy}piperidin-3-yl]carbonyl}-1,2,3,4-tetrahydroisoquinoline]
19 | 4.70 to 7.00 | CCC[C@H]1N(C(=O)c2ncccc2C(F)(F)F)CCC[C@@]1(Oc1csc(C(F)(F)F)c1)C(=O)N1CCc2cc(Cl)ccc2C1COC (stereo partly drawn) [Compound A107, 6-chloro-1-(methoxymethyl)-2-{[(2R,3S)-2-propyl-1-{[3-(trifluoromethyl)pyridin-2-yl]carbonyl}-3-{[5-(trifluoromethyl)thiophen-3-yl]oxy}piperidin-3-yl]carbonyl}-1,2,3,4-tetrahydroisoquinoline]
20 | 7.00 to 9.00 | CCC[C@H]1N(C(=O)c2ncccc2C(F)(F)F)CCC[C@@]1(Oc1csc(C(F)(F)F)c1)C(=O)N1CCc2cc(Cl)ccc2C1CC(C)(C)C(=O)O (stereo partly drawn) [Compound A108, 3-(6-chloro-2-{[(2R,3S)-2-propyl-1-{[3-(trifluoromethyl)pyridin-2-yl]carbonyl}-3-{[5-(trifluoromethyl)thiophen-3-yl]oxy}piperidin-3-yl]carbonyl}-1,2,3,4-tetrahydroisoquinolin-1-yl)-2,2-dimethylpropanoic acid]
